According to patent publication US20240218009A1, “NOVEL FORMS OF CYCLIC DINUCLEOTIDE COMPOUNDS” (Merck Sharp & Dohme LLC, priority 2021, published 2024):
Where two headings read alike, the source gives them in different places.

Conditions: pH 6.0, approx. 20-30 mg/mL, stirred at ambient conditions for minimum 16 hours, precipitate analysed by XRPD
Protocol: Equilibrium solubility experiments were conducted by mixing Compound A and the solution of interest at a concentration of approximately 20-30 mg/mL (Table 1). The solution of interest contained either 50 mM L-histidine or phosphate buffer (pH: 5.8<x<6.3). Additional Compound A was added until a cloudy solution was maintained. The samples were stirred at ambient conditions for a minimum of 16 hours. At the conclusion of the solubility measurements, solutions were clarified by centrifugation. The wet precipitated material was transferred to a 96-well transmission XRPD sample plate and allowed to dry to room temperature prior to XRPD analysis.
X-ray powder diffraction patterns for the solid phases of Compound A were generated on a Philips Analytical X'Pert PRO X-ray Diffraction System with a high throughput stage. A Cu K-Alpha radiation source was used. […] The experiments were analyzed at ambient conditions.

## Nc1nc2c(ncn2[C@@H]2O[C@@H]3CO[P@@](O)(=S)O[C@H]4[C@H](F)[C@H](n5cnc6c(N)ncnc65)O[C@@H]4CO[P@@](O)(=S)O[C@@H]2[C@@H]3F)c(=O)[nH]1.[Na] [Crystalline, mono-sodium salt, Monosodium salt of 2-amino-9-[(2R,5R,7R,8S,10R,12aR,14R,15S,15aR,16R)-14-(6-amino-9H-purin-9-yl)-15,16-difluoro-2,10-dihydroxy-2,10-disulfidooctahydro-12H-5,8-methanofuro [3,2-1][1,3,6,9,11,2,10]pentaoxa-diphosphacyclotetradecin-7-yl]-1,9-dihydro-6H-purin-6-one]
50 mM L-histidine buffer
  Compound A Terminal Phase: Form 1
50 mM phosphate buffer
  Compound A Terminal Phase: Crystalline mono-
